Results published in ChEMBL document CHEMBL4020788, “Synthesis, SAR and molecular docking studies of benzo[d]thiazole-hydrazones as potential antibacterial and antifungal agents” (2017).
Converted amounts (≈) assume the structure as drawn.

test system: Fusarium verticillioides; assay: Antifungal activity against Fusarium moniliforme at 75 ug/ml after 48 hrs by agar well diffusion method; assay type: functional; details: read-out: DIZ

SMILES	zone of inhibition at 75 µg/mL [mm]
Cc1cccc2nc(N/N=C/c3cc(O)c(O)c(O)c3)sc12	26

test system: Staphylococcus aureus; assay: Antibacterial activity against methicillin resistant Staphylococcus aureus MRSA090 incubated for overnight by microdilution method; assay type: functional; details: not given

SMILES	MIC [µg/mL]
Cc1cccc2nc(N/N=C/c3cc(O)c(O)c(O)c3)sc12	18 (≈ 57.1 µM)

test system: Bacillus subtilis; assay: Antibacterial activity against Bacillus subtilis incubated for overnight by microdilution method; assay type: functional; details: not given

SMILES	MIC [µg/mL]
Cc1cccc2nc(N/N=C/c3cc(O)c(O)c(O)c3)sc12	15 (≈ 47.6 µM)

test system: Fusarium verticillioides; assay: Antifungal activity against Fusarium moniliforme at 100 ug/ml after 48 hrs by agar well diffusion method; assay type: functional; details: read-out: DIZ

SMILES	zone of inhibition at 100 µg/mL [mm]
Cc1cccc2nc(N/N=C/c3cc(O)c(O)c(O)c3)sc12	34

test system: Staphylococcus aureus; assay: Antibacterial activity against Staphylococcus aureus at 50 ug/ml after 24 hrs by agar well diffusion method; assay type: functional; details: read-out: DIZ

SMILES	zone of inhibition at 50 µg/mL [mm]
Cc1cccc2nc(N/N=C/c3cc(O)c(O)c(O)c3)sc12	24

test system: Klebsiella pneumoniae; assay: Antibacterial activity against Klebsiella pneumoniae at 25 ug/ml after 24 hrs by agar well diffusion method; assay type: functional; details: read-out: DIZ

SMILES	zone of inhibition at 25 µg/mL [mm]
Cc1cccc2nc(N/N=C/c3cc(O)c(O)c(O)c3)sc12	17

test system: Fusarium verticillioides; assay: Antifungal activity against Fusarium moniliforme at 50 ug/ml after 48 hrs by agar well diffusion method; assay type: functional; details: read-out: DIZ

SMILES	zone of inhibition at 50 µg/mL [mm]
Cc1cccc2nc(N/N=C/c3cc(O)c(O)c(O)c3)sc12	17

test system: Klebsiella pneumoniae; assay: Antibacterial activity against Klebsiella pneumoniae at 100 ug/ml after 24 hrs by agar well diffusion method; assay type: functional; details: read-out: DIZ

SMILES	zone of inhibition at 100 µg/mL [mm]
Cc1cccc2nc(N/N=C/c3cc(O)c(O)c(O)c3)sc12	37

test system: Klebsiella pneumoniae; assay: Antibacterial activity against Klebsiella pneumoniae at 50 ug/ml after 24 hrs by agar well diffusion method; assay type: functional; details: read-out: DIZ

SMILES	zone of inhibition at 50 µg/mL [mm]
Cc1cccc2nc(N/N=C/c3cc(O)c(O)c(O)c3)sc12	23

test system: Fusarium verticillioides; assay: Antifungal activity against Fusarium moniliforme at 25 ug/ml after 48 hrs by agar well diffusion method; assay type: functional; details: read-out: DIZ

SMILES	zone of inhibition at 25 µg/mL [mm]
Cc1cccc2nc(N/N=C/c3cc(O)c(O)c(O)c3)sc12	10

test system: Aspergillus niger; assay: Antifungal activity against Aspergillus niger at 50 ug/ml after 48 hrs by agar well diffusion method; assay type: functional; details: read-out: DIZ

SMILES	zone of inhibition at 50 µg/mL [mm]
Cc1cccc2nc(N/N=C/c3cc(O)c(O)c(O)c3)sc12	14

test system: Bacillus subtilis; assay: Antibacterial activity against Bacillus subtilis at 100 ug/ml after 24 hrs by agar well diffusion method; assay type: functional; details: read-out: DIZ

SMILES	zone of inhibition at 100 µg/mL [mm]
Cc1cccc2nc(N/N=C/c3cc(O)c(O)c(O)c3)sc12	35

test system: Aspergillus niger; assay: Antifungal activity against Aspergillus niger at 75 ug/ml after 48 hrs by agar well diffusion method; assay type: functional; details: read-out: DIZ

SMILES	zone of inhibition at 75 µg/mL [mm]
Cc1cccc2nc(N/N=C/c3cc(O)c(O)c(O)c3)sc12	20

test system: Bacillus subtilis; assay: Antibacterial activity against Bacillus subtilis at 75 ug/ml after 24 hrs by agar well diffusion method; assay type: functional; details: read-out: DIZ

SMILES	zone of inhibition at 75 µg/mL [mm]
Cc1cccc2nc(N/N=C/c3cc(O)c(O)c(O)c3)sc12	27

test system: Fusarium oxysporum; assay: Antifungal activity against Fusarium oxysporum at 75 ug/ml after 48 hrs by agar well diffusion method; assay type: functional; details: read-out: DIZ

SMILES	zone of inhibition at 75 µg/mL [mm]
Cc1cccc2nc(N/N=C/c3cc(O)c(O)c(O)c3)sc12	27

test system: Fusarium verticillioides; assay: Antifungal activity against Fusarium moniliforme after 48 to 72 hrs by microdilution method; assay type: functional; details: not given

SMILES	MIC [µg/mL]
Cc1cccc2nc(N/N=C/c3cc(O)c(O)c(O)c3)sc12	25 (≈ 79.3 µM)

test system: Aspergillus niger; assay: Antifungal activity against Aspergillus niger at 100 ug/ml after 48 hrs by agar well diffusion method; assay type: functional; details: read-out: DIZ

SMILES	zone of inhibition at 100 µg/mL [mm]
Cc1cccc2nc(N/N=C/c3cc(O)c(O)c(O)c3)sc12	23

test system: Bacillus subtilis; assay: Antibacterial activity against Bacillus subtilis at 25 ug/ml after 24 hrs by agar well diffusion method; assay type: functional; details: read-out: DIZ

SMILES	zone of inhibition at 25 µg/mL [mm]
Cc1cccc2nc(N/N=C/c3cc(O)c(O)c(O)c3)sc12	14

test system: Escherichia coli; assay: Antibacterial activity against Escherichia coli at 25 ug/ml after 24 hrs by agar well diffusion method; assay type: functional; details: read-out: DIZ

SMILES	zone of inhibition at 25 µg/mL [mm]
Cc1cccc2nc(N/N=C/c3cc(O)c(O)c(O)c3)sc12	14

test system: Fusarium oxysporum; assay: Antifungal activity against Fusarium oxysporum at 25 ug/ml after 48 hrs by agar well diffusion method; assay type: functional; details: read-out: DIZ

SMILES	zone of inhibition at 25 µg/mL [mm]
Cc1cccc2nc(N/N=C/c3cc(O)c(O)c(O)c3)sc12	15

test system: Aspergillus niger; assay: Antifungal activity against Aspergillus niger at 25 ug/ml after 48 hrs by agar well diffusion method; assay type: functional; details: read-out: DIZ

SMILES	zone of inhibition at 25 µg/mL [mm]
Cc1cccc2nc(N/N=C/c3cc(O)c(O)c(O)c3)sc12	10

test system: Staphylococcus aureus; assay: Antibacterial activity against Staphylococcus aureus at 100 ug/ml after 24 hrs by agar well diffusion method; assay type: functional; details: read-out: DIZ

SMILES	zone of inhibition at 100 µg/mL [mm]
Cc1cccc2nc(N/N=C/c3cc(O)c(O)c(O)c3)sc12	31

test system: Escherichia coli; assay: Antibacterial activity against Escherichia coli at 75 ug/ml after 24 hrs by agar well diffusion method; assay type: functional; details: read-out: DIZ

SMILES	zone of inhibition at 75 µg/mL [mm]
Cc1cccc2nc(N/N=C/c3cc(O)c(O)c(O)c3)sc12	26

test system: Staphylococcus aureus; assay: Antibacterial activity against methicillin resistant Staphylococcus aureus MRSA090 at 25 ug/ml after 24 hrs by agar well diffusion method; assay type: functional; details: MRSA090, 24 h, read-out: DIZ

SMILES	zone of inhibition at 25 µg/mL [mm]
Cc1cccc2nc(N/N=C/c3cc(O)c(O)c(O)c3)sc12	20

test system: Staphylococcus aureus; assay: Antibacterial activity against methicillin resistant Staphylococcus aureus MRSA090 at 75 ug/ml after 24 hrs by agar well diffusion method; assay type: functional; details: MRSA090, 24 h, read-out: DIZ

SMILES	zone of inhibition at 75 µg/mL [mm]
Cc1cccc2nc(N/N=C/c3cc(O)c(O)c(O)c3)sc12	33

test system: Fusarium oxysporum; assay: Antifungal activity against Fusarium oxysporum after 48 to 72 hrs by microdilution method; assay type: functional; details: not given

SMILES	MIC [µg/mL]
Cc1cccc2nc(N/N=C/c3cc(O)c(O)c(O)c3)sc12	22 (≈ 69.8 µM)

test system: Staphylococcus aureus; assay: Antibacterial activity against methicillin resistant Staphylococcus aureus MRSA090 at 100 ug/ml after 24 hrs by agar well diffusion method; assay type: functional; details: MRSA090, 24 h, read-out: DIZ

SMILES	zone of inhibition at 100 µg/mL [mm]
Cc1cccc2nc(N/N=C/c3cc(O)c(O)c(O)c3)sc12	37

test system: Staphylococcus aureus; assay: Antibacterial activity against Staphylococcus aureus at 75 ug/ml after 24 hrs by agar well diffusion method; assay type: functional; details: read-out: DIZ

SMILES	zone of inhibition at 75 µg/mL [mm]
Cc1cccc2nc(N/N=C/c3cc(O)c(O)c(O)c3)sc12	28

test system: Staphylococcus aureus; assay: Antibacterial activity against methicillin resistant Staphylococcus aureus MRSA090 at 50 ug/ml after 24 hrs by agar well diffusion method; assay type: functional; details: MRSA090, 24 h, read-out: DIZ

SMILES	zone of inhibition at 50 µg/mL [mm]
Cc1cccc2nc(N/N=C/c3cc(O)c(O)c(O)c3)sc12	26

test system: Klebsiella pneumoniae; assay: Antibacterial activity against Klebsiella pneumoniae incubated for overnight by microdilution method; assay type: functional; details: not given

SMILES	MIC [µg/mL]
Cc1cccc2nc(N/N=C/c3cc(O)c(O)c(O)c3)sc12	24 (≈ 76.1 µM)

test system: Bacillus subtilis; assay: Antibacterial activity against Bacillus subtilis at 50 ug/ml after 24 hrs by agar well diffusion method; assay type: functional; details: read-out: DIZ

SMILES	zone of inhibition at 50 µg/mL [mm]
Cc1cccc2nc(N/N=C/c3cc(O)c(O)c(O)c3)sc12	22

test system: Staphylococcus aureus; assay: Antibacterial activity against Staphylococcus aureus at 25 ug/ml after 24 hrs by agar well diffusion method; assay type: functional; details: read-out: DIZ

SMILES	zone of inhibition at 25 µg/mL [mm]
Cc1cccc2nc(N/N=C/c3cc(O)c(O)c(O)c3)sc12	17

test system: Fusarium oxysporum; assay: Antifungal activity against Fusarium oxysporum at 50 ug/ml after 48 hrs by agar well diffusion method; assay type: functional; details: read-out: DIZ

SMILES	zone of inhibition at 50 µg/mL [mm]
Cc1cccc2nc(N/N=C/c3cc(O)c(O)c(O)c3)sc12	22

test system: Aspergillus niger; assay: Antifungal activity against Aspergillus niger after 48 to 72 hrs by microdilution method; assay type: functional; details: not given

SMILES	MIC [µg/mL]
Cc1cccc2nc(N/N=C/c3cc(O)c(O)c(O)c3)sc12	28 (≈ 88.8 µM)

test system: Klebsiella pneumoniae; assay: Antibacterial activity against Klebsiella pneumoniae at 75 ug/ml after 24 hrs by agar well diffusion method; assay type: functional; details: read-out: DIZ

SMILES	zone of inhibition at 75 µg/mL [mm]
Cc1cccc2nc(N/N=C/c3cc(O)c(O)c(O)c3)sc12	28

test system: Escherichia coli; assay: Antibacterial activity against Escherichia coli incubated for overnight by microdilution method; assay type: functional; details: not given

SMILES	MIC [µg/mL]
Cc1cccc2nc(N/N=C/c3cc(O)c(O)c(O)c3)sc12	19 (≈ 60.2 µM)

test system: Escherichia coli; assay: Antibacterial activity against Escherichia coli at 50 ug/ml after 24 hrs by agar well diffusion method; assay type: functional; details: read-out: DIZ

SMILES	zone of inhibition at 50 µg/mL [mm]
Cc1cccc2nc(N/N=C/c3cc(O)c(O)c(O)c3)sc12	20

test system: Staphylococcus aureus; assay: Antibacterial activity against Staphylococcus aureus incubated for overnight by microdilution method; assay type: functional; details: not given

SMILES	MIC [µg/mL]
Cc1cccc2nc(N/N=C/c3cc(O)c(O)c(O)c3)sc12	17 (≈ 53.9 µM)

test system: Fusarium oxysporum; assay: Antifungal activity against Fusarium oxysporum at 100 ug/ml after 48 hrs by agar well diffusion method; assay type: functional; details: read-out: DIZ

SMILES	zone of inhibition at 100 µg/mL [mm]
Cc1cccc2nc(N/N=C/c3cc(O)c(O)c(O)c3)sc12	33

test system: Escherichia coli; assay: Antibacterial activity against Escherichia coli at 100 ug/ml after 24 hrs by agar well diffusion method; assay type: functional; details: read-out: DIZ

SMILES	zone of inhibition at 100 µg/mL [mm]
Cc1cccc2nc(N/N=C/c3cc(O)c(O)c(O)c3)sc12	37
